Laboratory results as given in patent publication US6500825B2, “Substituted 2-aminoacetamides and the use thereof” (Euro-Celtique S.A., priority 1997, dated 2002).

What was measured:
[1] = system: maximal electroshock-induced seizures (MES); assay: Maximal electroshock-induced seizures (MES) iv in mouse; assay type: in vivo; details: administered iv 10 min before the test, tonic hindlimb extensor response
Procedure: The ability of selected 2-methylpropanamide derivatives to block maximal electroshock-induced seizures (MES) was determined by the following procedure. Seizures were induced by application of current (50 mA, 60 pulses/sec, 0.8 msec pulse width, 1 sec duration, D.C.) using a Ugo Basile ECT device (model 7801). Mice were restrained by gripping the loose skin on their dorsal surface and saline-coated corneal electrodes were held lightly against the two cornea. […] A tonic seizure was defined as a hindlimb extension in excess of 90 degrees from plane of the body. The 2-methylpropanamides tested were administered iv to mice 10 min before the test procedure.

[2] = system: voltage-sensitive Na+ channels; assay: Electrophysiological assay: patch-clamp recordings of voltage-sensitive Na+ currents in acutely dissociated rat hippocampal neurons; assay type: cell-based
Procedure: Electrophysiological Assay
Cell preparation: Acute cultures of rat hippocamnpal neurons were prepared daily using a modification of procedures described previously (Kuo and Bean, Mol. Pharm. 46:716-725 (1994)). Briefly, hippocampi were isolated from 3-11 day old rat pup brains (Sprague-Dawley; Charles River) and were sectioned, by hand, into 0.5-1 mm thick transyerse slices (Whittemore and Koerner, Eur. J. Pharm. 192:435-438 (1991)). Slices were incubated for at least 30 min at room temperature (20-24° C.) in an oxygenated medium (124 mM NaCl, 3.3 mM KCl, 2.4 mM MgSO4, 2.5 mM CaCl2, 1.2 mM KH2PO4, 26 mM NaHCO3, pH=7.4) continuously bubbled with 5% CO2/95% O2. Prior to recording, 4-5 slices were transferred to an oxygenated dissociation medium (82 mM NaSO4, 30 mM K2SO4, 3 mM MgCl2, 2 mM HEPES, 26 mM NaHCO3, 0.001% phenol red, pH=7.4) containing 3 mg/mL protease XXIII (Sigma, St. Louis, Mo.) and incubated for 10-15 min at 37° C., while continuously bubbling with 5% CO2/95% O2. Enzymatic digestion was terminated by transferring the slices to dissociation medium without bicarbonate, supplemented with 1 mg/mL bovine serum albumin and 1 mg/mL trypsin inhibitor (Sigma, St. Louis, Mo.). Slices were then transferred to a 35 mm culture dish containing dissociation medium without bicarbonate, and triturized with a fire-polished glass Pasteur pipette to release single cells. […]
Patch-clamp recordings of voltage-sensitive Na^+ currents: Whole-cell voltage-clamp recordings were made using conventional patch-clamp technique (Hamill et al., Pfluegers Arch. 391:85-100 (1981)) with an Axopatch 200A amplifier (Axon Instruments, Foster City, Calif.). […] Currents were recorded at room temperature (22-25° C.), filtered at 5 kHz with 4-pole Bessel filter, digitized at 20-50-μs intervals, and stored using Digidata 1200 analog/digital interface with Pclamp6/Clampex software (Axon Instruments). […] The inhibitory potency of drugs was assessed by measuring reductions in the peak amplitude of […] currents induced by increasing concentrations of compounds tested. […]

| SMILES | iv MES activity (number protected/number screened) [1] | melting point [°C] | inhibition of voltage-gated Na+ currents ([2]; acutely dissociated rat hippocampal neurons) | effect on Na+ currents activated from a holding membrane voltage of −100 mV ([2]; concentrations between 0.1-10 μM, holding voltage −100 mV) | Kd ([2]; inactivated Na+ channels, acutely dissociated rat hippocampal neurons, read-out: apparent antagonist dissociation constant (Kd) for inactivated Na+ channels) [nM] |
| --- | --- | --- | --- | --- | --- |
| CC(C)(NCc1ccc(Oc2ccc(F)cc2F)cc1)C(N)=O [2,4-difluorophenoxy, 2-(4-(2,4-Difluorophenoxy)benzylamino)-2-methylpropanamide] | 8/8 | – | – | – | – |
| CC(C)(NCc1ccc(Oc2ccc3c(c2)CCC3)cc1)C(N)=O [Example 5-indanoxy, 2-(4-(5-Indanoxy)benzylamino)-2-methylpropanamide] | 1/8 | 81 to 83 | – | – | – |
| CC(C)(NCc1ccc(Oc2ccc3c(c2)OCO3)cc1)C(N)=O [3,4-methylenedioxyphenoxy, 2-(4-(3,4-Methylenedioxyphenoxy)benzylamino)-2-methyl-propanamide] | 8/8 | – | – | – | – |
| CC(C)(NCc1ccc(OCc2ccccc2F)cc1)C(N)=O [2-(4-(2-Fluorobenzyloxy)benzylamino)-2-methyl-propanamide] | – | – | dose-dependent inhibition | very little effect | ~1200 |
| CC(C)(NCc1ccc(Oc2ccc(F)cc2)cc1)C(N)=O [4-fluorophenoxy, 2-(4-(4-Fluorophenoxy)benzylamino)-2-methylpropanamide] | 8/8 | 103 to 106 | – | – | – |
